# Experimental data taken from ChEMBL document CHEMBL1743201, “Casarett and Doull's Toxicology The Basic Science of Poisons, 7th edition” (2008).
# How the values were obtained:
# Format in all cases: ADME
# [1] = molecular target: T1, Glutathione S-transferase Mu 1 (Homo sapiens, UniProt P09488); assay: Substrates for human cytosolic glutathione transferase GSTM1
# T1 sequence (P09488 whole entry): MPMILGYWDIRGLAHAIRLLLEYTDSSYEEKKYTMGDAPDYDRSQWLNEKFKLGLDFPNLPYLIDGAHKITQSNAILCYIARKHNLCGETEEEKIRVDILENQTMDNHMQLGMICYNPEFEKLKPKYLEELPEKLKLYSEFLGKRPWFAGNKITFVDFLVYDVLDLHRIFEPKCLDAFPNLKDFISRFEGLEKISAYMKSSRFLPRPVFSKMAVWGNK
# Cytochrome P450 2D6 = Cytochrome P450 2D6 (Homo sapiens, UniProt P10635); assay: Clinically relevant inhibitors of human liver microsomal P450 enzymes, isoform CYP2D6; details: microsomes
# Cytochrome P450 2C19 = Cytochrome P450 2C19 (Homo sapiens, UniProt P33261); assay: Clinically relevant substrates of human liver microsomal P450 enzymes, isoform CYP2C19; details: microsomes
# Cytochrome P450 1A2 = molecular target: T2, Cytochrome P450 1A2 (Homo sapiens, UniProt P05177); assay: Clinically relevant inhibitors of human liver microsomal P450 enzymes, isoform CYP1A2; details: microsomes
# T2 sequence (P05177 whole entry): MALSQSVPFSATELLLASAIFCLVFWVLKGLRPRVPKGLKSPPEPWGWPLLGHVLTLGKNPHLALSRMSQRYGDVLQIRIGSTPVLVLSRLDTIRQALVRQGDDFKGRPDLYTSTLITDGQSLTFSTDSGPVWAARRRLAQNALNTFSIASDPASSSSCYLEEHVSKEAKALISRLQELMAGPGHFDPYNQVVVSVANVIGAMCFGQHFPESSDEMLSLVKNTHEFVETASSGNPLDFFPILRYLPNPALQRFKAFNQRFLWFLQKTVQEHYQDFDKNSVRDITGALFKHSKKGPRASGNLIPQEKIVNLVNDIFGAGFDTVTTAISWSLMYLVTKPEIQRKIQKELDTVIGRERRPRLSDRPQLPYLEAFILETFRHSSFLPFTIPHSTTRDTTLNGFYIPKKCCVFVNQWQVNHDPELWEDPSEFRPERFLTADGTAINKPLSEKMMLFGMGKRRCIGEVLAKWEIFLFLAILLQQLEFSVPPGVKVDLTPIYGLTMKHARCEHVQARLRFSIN
# Cytochrome P450 2C9 [2] = molecular target: T3, Cytochrome P450 2C9 (Homo sapiens, UniProt P11712); assay: Clinically relevant inhibitors of human liver microsomal P450 enzymes, isoform CYP2C9; details: microsomes
# [3] = molecular target: T4, Glutathione S-transferase theta-1 (Homo sapiens, UniProt P30711); assay: Substrates for human cytosolic glutathione transferase GSTT1
# T4 sequence (P30711 whole entry): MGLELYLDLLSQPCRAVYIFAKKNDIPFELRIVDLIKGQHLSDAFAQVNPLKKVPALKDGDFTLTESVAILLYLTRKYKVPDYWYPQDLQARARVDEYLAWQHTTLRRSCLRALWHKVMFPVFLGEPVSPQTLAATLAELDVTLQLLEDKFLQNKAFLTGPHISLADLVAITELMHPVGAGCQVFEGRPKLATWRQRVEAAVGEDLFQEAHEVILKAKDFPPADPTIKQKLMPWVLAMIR
# [4] = molecular target: T5, UDP-glucuronosyltransferase 2B15 (Homo sapiens, UniProt P54855); assay: Substrate of human UDP-glucuronosyltransferase UGT2B15
# T5 sequence (P54855 whole entry): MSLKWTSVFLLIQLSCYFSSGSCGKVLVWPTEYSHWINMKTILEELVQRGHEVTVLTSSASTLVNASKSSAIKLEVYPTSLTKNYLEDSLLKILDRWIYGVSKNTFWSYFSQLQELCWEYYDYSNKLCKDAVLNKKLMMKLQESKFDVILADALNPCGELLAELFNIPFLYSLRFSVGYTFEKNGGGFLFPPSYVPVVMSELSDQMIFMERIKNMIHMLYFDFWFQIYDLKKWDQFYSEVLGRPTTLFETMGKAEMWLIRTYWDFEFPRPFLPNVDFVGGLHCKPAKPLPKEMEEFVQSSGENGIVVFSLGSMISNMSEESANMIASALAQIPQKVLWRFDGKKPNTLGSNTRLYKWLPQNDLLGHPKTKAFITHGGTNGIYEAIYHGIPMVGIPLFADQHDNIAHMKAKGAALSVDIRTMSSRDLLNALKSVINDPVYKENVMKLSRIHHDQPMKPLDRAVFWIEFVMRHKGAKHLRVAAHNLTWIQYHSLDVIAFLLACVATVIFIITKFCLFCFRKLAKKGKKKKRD
# [5] = molecular target: T6, UDP-glucuronosyltransferase 1A9 (Homo sapiens, UniProt O60656); assay: Substrate of human UDP-glucuronosyltransferase UGT1A9
# T6 sequence (O60656 whole entry): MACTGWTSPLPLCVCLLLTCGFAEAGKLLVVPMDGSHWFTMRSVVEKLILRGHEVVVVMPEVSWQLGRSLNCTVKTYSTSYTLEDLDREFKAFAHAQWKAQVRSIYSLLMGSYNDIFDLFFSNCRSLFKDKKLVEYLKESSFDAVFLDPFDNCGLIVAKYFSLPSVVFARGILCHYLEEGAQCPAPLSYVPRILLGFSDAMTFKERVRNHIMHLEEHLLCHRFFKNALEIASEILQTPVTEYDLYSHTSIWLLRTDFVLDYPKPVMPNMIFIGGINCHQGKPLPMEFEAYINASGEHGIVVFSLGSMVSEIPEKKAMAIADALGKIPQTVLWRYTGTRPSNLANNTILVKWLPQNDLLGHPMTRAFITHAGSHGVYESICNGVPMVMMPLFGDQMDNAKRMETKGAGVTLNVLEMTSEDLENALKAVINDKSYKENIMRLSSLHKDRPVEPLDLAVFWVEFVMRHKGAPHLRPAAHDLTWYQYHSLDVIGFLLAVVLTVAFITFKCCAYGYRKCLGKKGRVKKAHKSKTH
# [6] = molecular target: T7, UDP-glucuronosyltransferase 1A8 (Homo sapiens, UniProt Q9HAW9); assay: Substrate of human UDP-glucuronosyltransferase UGT1A8
# T7 sequence (Q9HAW9 whole entry): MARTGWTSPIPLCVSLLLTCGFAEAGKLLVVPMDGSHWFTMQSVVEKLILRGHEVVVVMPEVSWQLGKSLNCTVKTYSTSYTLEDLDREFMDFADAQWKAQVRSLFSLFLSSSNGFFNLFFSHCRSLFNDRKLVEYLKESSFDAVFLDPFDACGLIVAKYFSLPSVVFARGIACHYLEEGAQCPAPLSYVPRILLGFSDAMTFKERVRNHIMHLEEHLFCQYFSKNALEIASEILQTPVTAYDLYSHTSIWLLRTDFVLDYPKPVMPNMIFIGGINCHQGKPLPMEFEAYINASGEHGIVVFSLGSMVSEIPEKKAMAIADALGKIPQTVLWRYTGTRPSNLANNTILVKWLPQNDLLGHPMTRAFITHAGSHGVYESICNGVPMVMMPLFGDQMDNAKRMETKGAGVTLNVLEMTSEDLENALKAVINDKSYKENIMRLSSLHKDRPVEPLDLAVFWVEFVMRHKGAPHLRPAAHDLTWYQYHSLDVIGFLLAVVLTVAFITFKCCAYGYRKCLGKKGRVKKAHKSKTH
# [7] = molecular target: T8, Glutathione S-transferase Mu 2 (Homo sapiens, UniProt P28161); assay: Substrates for human cytosolic glutathione transferase GSTM2
# T8 sequence (P28161 whole entry): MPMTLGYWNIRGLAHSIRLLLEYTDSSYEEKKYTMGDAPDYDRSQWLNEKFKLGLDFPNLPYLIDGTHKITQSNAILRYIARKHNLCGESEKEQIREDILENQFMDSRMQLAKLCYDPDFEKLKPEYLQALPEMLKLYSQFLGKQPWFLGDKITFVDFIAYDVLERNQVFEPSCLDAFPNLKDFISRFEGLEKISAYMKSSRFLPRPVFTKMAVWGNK
# [8] = molecular target: T9, Glutathione S-transferase A1 (Homo sapiens, UniProt P08263); assay: Substrates for human cytosolic glutathione transferase GSTA1
# T9 sequence (P08263 whole entry): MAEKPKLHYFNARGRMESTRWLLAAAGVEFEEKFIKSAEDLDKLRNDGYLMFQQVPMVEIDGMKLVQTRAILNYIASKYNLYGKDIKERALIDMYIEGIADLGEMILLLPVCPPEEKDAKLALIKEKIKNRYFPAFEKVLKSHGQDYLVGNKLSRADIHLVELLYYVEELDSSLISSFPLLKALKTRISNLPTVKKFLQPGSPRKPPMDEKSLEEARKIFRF
# [9] = molecular target: Glutathione S-transferase P (Homo sapiens, UniProt P09211); assay: Substrates for human cytosolic glutathione transferase GSTP1
# Cytochrome P450 2C9 [10] = molecular target: T3, Cytochrome P450 2C9; assay: Clinically relevant substrates of human liver microsomal P450 enzymes, isoform CYP2C9; details: microsomes
# [11] = molecular target: T10, UDP-glucuronosyltransferase 1A6 (Homo sapiens, UniProt P19224); assay: Substrate of human UDP-glucuronosyltransferase UGT1A6
# T10 sequence (P19224 whole entry): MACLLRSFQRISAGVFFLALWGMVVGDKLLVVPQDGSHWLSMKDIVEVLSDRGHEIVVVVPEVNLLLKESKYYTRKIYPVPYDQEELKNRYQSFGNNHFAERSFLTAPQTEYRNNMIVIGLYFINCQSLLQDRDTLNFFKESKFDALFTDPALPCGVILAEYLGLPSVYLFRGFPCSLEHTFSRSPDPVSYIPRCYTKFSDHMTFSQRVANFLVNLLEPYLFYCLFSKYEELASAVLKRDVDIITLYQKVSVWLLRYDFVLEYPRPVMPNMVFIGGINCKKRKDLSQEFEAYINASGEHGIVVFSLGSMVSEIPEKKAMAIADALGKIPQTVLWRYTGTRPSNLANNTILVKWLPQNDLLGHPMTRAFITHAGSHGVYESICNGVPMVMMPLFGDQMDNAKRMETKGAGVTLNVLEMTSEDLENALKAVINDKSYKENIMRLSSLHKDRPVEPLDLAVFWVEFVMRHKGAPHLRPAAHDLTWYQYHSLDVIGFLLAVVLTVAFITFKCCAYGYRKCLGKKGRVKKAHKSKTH
# [12] = molecular target: T11, UDP-glucuronosyltransferase 2B7 (Homo sapiens, UniProt P16662); assay: Substrate of human UDP-glucuronosyltransferase UGT2B7
# T11 sequence (P16662 whole entry): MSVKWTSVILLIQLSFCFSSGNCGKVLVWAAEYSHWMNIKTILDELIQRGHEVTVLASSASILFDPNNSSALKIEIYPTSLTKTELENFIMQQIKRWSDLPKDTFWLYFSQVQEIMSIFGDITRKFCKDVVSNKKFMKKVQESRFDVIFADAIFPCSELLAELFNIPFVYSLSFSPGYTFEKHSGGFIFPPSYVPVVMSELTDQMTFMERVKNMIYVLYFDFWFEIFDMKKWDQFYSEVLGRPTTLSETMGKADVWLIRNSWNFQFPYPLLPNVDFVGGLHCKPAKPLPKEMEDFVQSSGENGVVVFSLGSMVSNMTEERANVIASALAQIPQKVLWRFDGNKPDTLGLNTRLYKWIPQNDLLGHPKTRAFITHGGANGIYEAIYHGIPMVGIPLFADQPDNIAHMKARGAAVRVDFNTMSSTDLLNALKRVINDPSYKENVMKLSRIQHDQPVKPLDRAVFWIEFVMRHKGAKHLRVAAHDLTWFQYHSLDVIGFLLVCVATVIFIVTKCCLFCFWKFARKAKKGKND
# T3 sequence (P11712 whole entry, canonical isoform): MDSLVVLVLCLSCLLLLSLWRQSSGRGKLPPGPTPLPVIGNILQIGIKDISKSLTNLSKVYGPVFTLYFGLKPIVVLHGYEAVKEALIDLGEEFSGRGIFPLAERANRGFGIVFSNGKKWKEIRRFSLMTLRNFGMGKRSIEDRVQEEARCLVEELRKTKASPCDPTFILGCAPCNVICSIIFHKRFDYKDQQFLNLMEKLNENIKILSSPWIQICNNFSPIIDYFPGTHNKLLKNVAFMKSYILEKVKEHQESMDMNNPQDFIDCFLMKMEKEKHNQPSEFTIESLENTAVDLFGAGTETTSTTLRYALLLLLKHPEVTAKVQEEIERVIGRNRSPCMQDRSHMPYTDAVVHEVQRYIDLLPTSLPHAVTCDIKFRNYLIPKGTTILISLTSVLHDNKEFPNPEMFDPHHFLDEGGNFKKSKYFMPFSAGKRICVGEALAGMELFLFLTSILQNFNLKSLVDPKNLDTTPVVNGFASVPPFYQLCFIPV
# Chain of Cytochrome P450 2C19 (P33261 whole entry, canonical isoform): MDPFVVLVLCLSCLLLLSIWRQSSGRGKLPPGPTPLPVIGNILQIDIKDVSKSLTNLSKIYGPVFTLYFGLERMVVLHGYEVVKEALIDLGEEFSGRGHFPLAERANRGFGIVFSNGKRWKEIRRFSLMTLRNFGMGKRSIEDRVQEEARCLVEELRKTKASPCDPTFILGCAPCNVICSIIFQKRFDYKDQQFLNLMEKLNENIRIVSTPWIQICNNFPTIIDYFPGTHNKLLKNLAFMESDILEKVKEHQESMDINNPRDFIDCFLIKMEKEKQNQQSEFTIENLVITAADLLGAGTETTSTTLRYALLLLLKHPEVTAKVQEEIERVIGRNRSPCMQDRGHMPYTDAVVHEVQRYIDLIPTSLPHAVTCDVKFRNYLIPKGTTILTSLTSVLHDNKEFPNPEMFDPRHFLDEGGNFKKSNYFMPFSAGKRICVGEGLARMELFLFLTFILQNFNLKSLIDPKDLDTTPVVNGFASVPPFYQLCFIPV
# Chain of Glutathione S-transferase P (P09211 whole entry, canonical isoform): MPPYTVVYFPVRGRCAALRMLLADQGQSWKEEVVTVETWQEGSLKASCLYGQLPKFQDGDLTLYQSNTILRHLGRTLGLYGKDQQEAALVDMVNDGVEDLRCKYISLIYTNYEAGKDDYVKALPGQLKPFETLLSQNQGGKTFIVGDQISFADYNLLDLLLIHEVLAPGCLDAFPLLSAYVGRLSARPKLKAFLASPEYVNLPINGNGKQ
# Chain of Cytochrome P450 2D6 (P10635 whole entry, canonical isoform): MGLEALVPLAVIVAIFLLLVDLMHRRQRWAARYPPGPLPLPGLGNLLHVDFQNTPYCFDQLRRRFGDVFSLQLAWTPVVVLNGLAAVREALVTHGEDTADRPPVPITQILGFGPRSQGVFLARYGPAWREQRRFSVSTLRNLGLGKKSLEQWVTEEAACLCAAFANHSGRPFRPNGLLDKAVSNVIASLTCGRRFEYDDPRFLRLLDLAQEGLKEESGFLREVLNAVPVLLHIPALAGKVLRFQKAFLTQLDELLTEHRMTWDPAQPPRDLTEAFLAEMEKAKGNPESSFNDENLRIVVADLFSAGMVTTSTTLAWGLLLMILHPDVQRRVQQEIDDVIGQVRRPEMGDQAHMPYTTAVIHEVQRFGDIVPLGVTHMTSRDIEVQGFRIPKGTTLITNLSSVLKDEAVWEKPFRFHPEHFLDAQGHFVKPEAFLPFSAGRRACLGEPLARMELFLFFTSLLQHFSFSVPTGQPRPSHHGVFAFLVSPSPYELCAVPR
smiles,measurement,setting,value
c1ccc([C@H]2O[C@@H]2c2ccccc2)cc1 (relative stereo),Activity,[1],Substrate
CN[C@H]1CC[C@@H](c2ccc(Cl)c(Cl)c2)c2ccccc21 [SERTRALINE],Activity,Cytochrome P450 2D6,Inhibitor
O=C(NCCN1CCOCC1)c1ccc(Cl)cc1 [MOCLOBEMIDE],Activity,Cytochrome P450 2C19,Substrate
COCCCC/C(=N\OCCN)c1ccc(C(F)(F)F)cc1 [FLUVOXAMINE],Activity,Cytochrome P450 1A2,Inhibitor
same,Activity,Cytochrome P450 2C9 [2],Inhibitor
C=CC1CO1 (centres undefined) [BUTADIENE EPOXIDE],Activity,[3],Substrate
O=[N+]([O-])c1ccc(OCC2CO2)cc1 (centres undefined),Activity,[3],Substrate
ClCCl [METHYLENE CHLORIDE],Activity,[3],Substrate
CCC(=C(c1ccc(O)cc1)c1ccc(OCCN(C)C)cc1)c1ccccc1,Activity,[4],Substrate
CCN(CC)C(=O)/C(C#N)=C/c1cc(O)c(O)c([N+](=O)[O-])c1 [ENTACAPONE],Activity,[4],Substrate
same,Activity,[5],Substrate
same,Activity,[6],Substrate
c1ccc(C2CO2)cc1 (centres undefined),Activity,[1],Substrate
COc1ccnc(C[S+]([O-])c2nc3ccc(OC(F)F)cc3[nH]2)c1OC (centres undefined) [PANTOPRAZOLE],Activity,Cytochrome P450 2C19,Substrate
NC(CC1=CC(=O)C(=O)C=C1)C(=O)O (centres undefined),Activity,[7],Substrate
CC(c1cc2ccccc2s1)N(O)C(N)=O (centres undefined) [ZILEUTON],Activity,Cytochrome P450 1A2,Inhibitor
OC1c2cc3ccc4cccc5ccc(c2C2OC2C1O)c3c45 (centres undefined) [BENZO[A]PYRENE DIOL EPOXIDE],Activity,[1],Substrate
same,Activity,[8],Substrate
same,Activity,[9],Substrate
CC(=O)C[C@@H](c1ccccc1)c1c(O)c2ccccc2oc1=O,Activity,Cytochrome P450 2C9 [10],Substrate
Cc1ccc(C(=O)c2cc(O)c(O)c([N+](=O)[O-])c2)cc1 [TOLCAPONE],Activity,[4],Substrate
CC(C(=O)O)c1ccc(-c2ccccc2)c(F)c1 (centres undefined) [FLURBIPROFEN],Activity,Cytochrome P450 2C9 [10],Substrate
"OC1c2c(ccc3cc4c(ccc5ccccc54)cc23)C2OC2C1O (centres undefined) [DIBENZ[A,H]ANTHRACENE DIOL EPOXIDE]",Activity,[1],Substrate
same,Activity,[8],Substrate
CCn1cc(C(=O)O)c(=O)c2cc(F)c(N3CCNCC3)cc21 [NORFLOXACIN],Activity,Cytochrome P450 1A2,Inhibitor
Cc1cccc(C)c1OCC(C)N (centres undefined) [MEXILETINE],Activity,Cytochrome P450 1A2,Inhibitor
C1CO1 [OXIRANE],Activity,[3],Substrate
O=C(O)Cc1ccccc1Nc1c(Cl)cccc1Cl [DICLOFENAC],Activity,[4],Substrate
same,Activity,[11],Substrate
same,Activity,[12],Substrate
same,Activity,Cytochrome P450 2C9 [10],Substrate
same,Activity,[5],Substrate
O=[N+]([O-])c1ccc(Cl)c(Cl)c1,Activity,[7],Substrate
O=C1C=C2CCNC2=CC1=O [AMINOCHROME],Activity,[7],Substrate
CNCCC(Oc1ccc(C(F)(F)F)cc1)c1ccccc1 (centres undefined) [FLUOXETINE],Activity,Cytochrome P450 2C19,Substrate
same,Activity,Cytochrome P450 2C9 [10],Substrate
same,Activity,Cytochrome P450 2C9 [2],Inhibitor
OC1c2ccc3c(ccc4ccccc43)c2C2OC2C1O (centres undefined),Activity,[1],Substrate
same,Activity,[9],Substrate
